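Step 1: Grow cells in 96-well plates. Step 2: Expose to compound for 48 hours at 5 concentrations. Step 3: Interpolate endpoints linearly; if unreached, use highest concentration. TGI: concentration producing complete growth inhibition.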
Assays:
Assay in all cases: growth of human tumour cells (NCI), 48 h
OVCAR-5 ovarian = system: OVCAR-5 ovarian
CAKI-1 renal = system: CAKI-1 renal
HOP-92 NSCLC = system: HOP-92 NSCLC
IGROV1 ovarian = system: IGROV1 ovarian
HS 578T breast = system: HS 578T breast
OVCAR-3 ovarian = system: OVCAR-3 ovarian
UACC-62 melanoma = system: UACC-62 melanoma
OVCAR-4 ovarian = system: OVCAR-4 ovarian
KM12 colon = system: KM12 colon
SK-OV-3 ovarian = system: SK-OV-3 ovarian
SF-268 CNS = system: SF-268 CNS
MDA-MB-435 = system: MDA-MB-435
UO-31 renal = system: UO-31 renal
SN12C renal = system: SN12C renal
A549 NSCLC = system: A549 NSCLC
BT-549 breast = system: BT-549 breast
OVCAR-8 ovarian = system: OVCAR-8 ovarian
SNB-19 CNS = system: SNB-19 CNS

## NS(=O)(=O)c1ccc(NC(=S)NC(=O)Nc2ccc(Cl)c(Cl)c2)cc1
OVCAR-5 ovarian
  TGI: 27.9 µM
CAKI-1 renal
  TGI: 40.1 µM
HOP-92 NSCLC
  TGI: 48.6 µM
IGROV1 ovarian
  TGI: 39.2 µM
HS 578T breast
  TGI: 59.3 µM
OVCAR-3 ovarian
  TGI: 42 µM
UACC-62 melanoma
  TGI: 28.7 µM
OVCAR-4 ovarian
  TGI: 44.1 µM
KM12 colon
  TGI: 28.3 µM
SK-OV-3 ovarian
  TGI: 38.9 µM
SF-268 CNS
  TGI: 32.3 µM
MDA-MB-435
  TGI: 35.7 µM
UO-31 renal
  TGI: 9.66 µM
SN12C renal
  TGI: 31 µM
A549 NSCLC
  TGI: 31.7 µM
BT-549 breast
  TGI: 31.7 µM
OVCAR-8 ovarian
  TGI: 41.2 µM
SNB-19 CNS
  TGI: 24.5 µM

## O=C(O)c1ccccc1CN1CCCC(C(=O)O)C1 (configuration not stated)
OVCAR-5 ovarian
  TGI: > 100 µM
CAKI-1 renal
  TGI: > 100 µM
HOP-92 NSCLC
  TGI: > 100 µM
IGROV1 ovarian
  TGI: > 100 µM
HS 578T breast
  TGI: > 100 µM
OVCAR-3 ovarian
  TGI: > 100 µM
UACC-62 melanoma
  TGI: > 100 µM
OVCAR-4 ovarian
  TGI: > 100 µM
KM12 colon
  TGI: > 100 µM
SK-OV-3 ovarian
  TGI: > 100 µM
SF-268 CNS
  TGI: > 100 µM
MDA-MB-435
  TGI: > 100 µM
UO-31 renal
  TGI: > 100 µM
SN12C renal
  TGI: > 100 µM
A549 NSCLC
  TGI: > 100 µM
BT-549 breast
  TGI: > 100 µM
OVCAR-8 ovarian
  TGI: > 100 µM
SNB-19 CNS
  TGI: > 100 µM

## O=C1C=CC2(C=C1)O[C@H](COCc1ccccc1)[C@@H](COCc1ccccc1)O2
OVCAR-5 ovarian
  TGI: 3.04 µM
CAKI-1 renal
  TGI: 5.88 µM
HOP-92 NSCLC
  TGI: 2.64 µM
IGROV1 ovarian
  TGI: 3.03 µM
HS 578T breast
  TGI: 4.87 µM
OVCAR-3 ovarian
  TGI: 6.32 µM
UACC-62 melanoma
  TGI: 3.99 µM
OVCAR-4 ovarian
  TGI: 4.66 µM
KM12 colon
  TGI: 14.3 µM
SK-OV-3 ovarian
  TGI: 29 µM
SF-268 CNS
  TGI: 3.69 µM
MDA-MB-435
  TGI: 5.51 µM
UO-31 renal
  TGI: 2.91 µM
SN12C renal
  TGI: 3.6 µM
A549 NSCLC
  TGI: 39 µM
BT-549 breast
  TGI: 2.37 µM
OVCAR-8 ovarian
  TGI: 1.28 µM
SNB-19 CNS
  TGI: 12.3 µM

## N#Cc1cc2c(cc1C#N)SCCSCCCSCCS2
OVCAR-5 ovarian
  TGI: > 100 µM
CAKI-1 renal
  TGI: > 57.8 µM
HOP-92 NSCLC
  TGI: 7.05 µM
IGROV1 ovarian
  TGI: 97.8 µM
HS 578T breast
  TGI: 28.8 µM
OVCAR-3 ovarian
  TGI: > 100 µM
UACC-62 melanoma
  TGI: 27.6 µM
OVCAR-4 ovarian
  TGI: > 100 µM
KM12 colon
  TGI: > 100 µM
SK-OV-3 ovarian
  TGI: 45.4 µM
SF-268 CNS
  TGI: 29.9 µM
MDA-MB-435
  TGI: > 100 µM
UO-31 renal
  TGI: > 90.6 µM
SN12C renal
  TGI: > 100 µM
A549 NSCLC
  TGI: > 100 µM
BT-549 breast
  TGI: 31.2 µM
OVCAR-8 ovarian
  TGI: 31.8 µM
SNB-19 CNS
  TGI: 22.9 µM

## Cc1cn([C@@H]2O[C@H](CO[Si](C)(C)C(C)(C)C)[C@]3(O[C@H]3C(=O)NO)[C@H]2O[Si](C)(C)C(C)(C)C)c(=O)[nH]c1=O
OVCAR-5 ovarian
  TGI: 3.33 µM
CAKI-1 renal
  TGI: 4.31 µM
HOP-92 NSCLC
  TGI: 4.17 µM
IGROV1 ovarian
  TGI: 3.19 µM
HS 578T breast
  TGI: 4.23 µM
OVCAR-3 ovarian
  TGI: 3.49 µM
UACC-62 melanoma
  TGI: 3.38 µM
OVCAR-4 ovarian
  TGI: 3.77 µM
KM12 colon
  TGI: 3.71 µM
SK-OV-3 ovarian
  TGI: 3.66 µM
SF-268 CNS
  TGI: 2.97 µM
MDA-MB-435
  TGI: 4.38 µM
UO-31 renal
  TGI: 3.28 µM
SN12C renal
  TGI: 3.08 µM
A549 NSCLC
  TGI: 3.63 µM
BT-549 breast
  TGI: 3.29 µM
OVCAR-8 ovarian
  TGI: 3.53 µM
SNB-19 CNS
  TGI: 3.18 µM

## O=C(CNc1ccccc1[N+](=O)[O-])Nn1cnc2ccc(S(=O)(=O)Nc3ccccc3[N+](=O)[O-])cc2c1=O
OVCAR-5 ovarian
  TGI: > 100 µM
CAKI-1 renal
  TGI: > 100 µM
HOP-92 NSCLC
  TGI: > 100 µM
IGROV1 ovarian
  TGI: > 100 µM
HS 578T breast
  TGI: > 100 µM
OVCAR-3 ovarian
  TGI: > 100 µM
UACC-62 melanoma
  TGI: > 100 µM
OVCAR-4 ovarian
  TGI: > 100 µM
KM12 colon
  TGI: > 100 µM
SK-OV-3 ovarian
  TGI: > 100 µM
SF-268 CNS
  TGI: > 100 µM
MDA-MB-435
  TGI: > 100 µM
UO-31 renal
  TGI: > 100 µM
SN12C renal
  TGI: > 100 µM
A549 NSCLC
  TGI: > 100 µM
BT-549 breast
  TGI: > 100 µM
OVCAR-8 ovarian
  TGI: > 100 µM
SNB-19 CNS
  TGI: > 100 µM

## CC1=C(O)C(=O)C=C2C1=CC=C1[C@@]2(C)CC[C@@]2(C)C3C[C@@H](C)C(=O)[C@@H](O)[C@]3(C)CC[C@]12C (some centres not stated)
OVCAR-5 ovarian
  TGI: 9.29 µM
CAKI-1 renal
  TGI: 2.83 µM
HOP-92 NSCLC
  TGI: 3.87 µM
IGROV1 ovarian
  TGI: 3.28 µM
HS 578T breast
  TGI: > 84.8 µM
OVCAR-3 ovarian
  TGI: 3.6 µM
UACC-62 melanoma
  TGI: 3.28 µM
OVCAR-4 ovarian
  TGI: 11 µM
KM12 colon
  TGI: 19.6 µM
SK-OV-3 ovarian
  TGI: 22.2 µM
SF-268 CNS
  TGI: 11 µM
MDA-MB-435
  TGI: 6.6 µM
UO-31 renal
  TGI: 3.53 µM
SN12C renal
  TGI: 4.89 µM
A549 NSCLC
  TGI: 28.5 µM
BT-549 breast
  TGI: 3.4 µM
OVCAR-8 ovarian
  TGI: 5.47 µM
SNB-19 CNS
  TGI: 9.23 µM

## COC1=C(C(c2cc(OC)c(OC)c(OC)c2)c2cc3c(cc2OC)OCO3)C(=O)OC1 (configuration not stated)
OVCAR-5 ovarian
  TGI: > 100 µM
CAKI-1 renal
  TGI: > 100 µM
HOP-92 NSCLC
  TGI: > 100 µM
IGROV1 ovarian
  TGI: > 84.8 µM
HS 578T breast
  TGI: > 58.4 µM
OVCAR-3 ovarian
  TGI: > 61 µM
UACC-62 melanoma
  TGI: > 87 µM
OVCAR-4 ovarian
  TGI: > 95.1 µM
KM12 colon
  TGI: 40.9 µM
SK-OV-3 ovarian
  TGI: > 78.6 µM
SF-268 CNS
  TGI: > 79.8 µM
MDA-MB-435
  TGI: 17.5 µM
UO-31 renal
  TGI: 54.9 µM
SN12C renal
  TGI: > 100 µM
A549 NSCLC
  TGI: > 67.1 µM
BT-549 breast
  TGI: > 100 µM
OVCAR-8 ovarian
  TGI: 73.9 µM
SNB-19 CNS
  TGI: > 95.6 µM

## Cc1cn2cc(-c3cccs3)nc2s1
OVCAR-5 ovarian
  TGI: > 100 µM
CAKI-1 renal
  TGI: > 100 µM
HOP-92 NSCLC
  TGI: > 100 µM
IGROV1 ovarian
  TGI: > 100 µM
HS 578T breast
  TGI: > 100 µM
OVCAR-3 ovarian
  TGI: > 100 µM
UACC-62 melanoma
  TGI: > 100 µM
OVCAR-4 ovarian
  TGI: > 100 µM
KM12 colon
  TGI: > 100 µM
SK-OV-3 ovarian
  TGI: > 100 µM
SF-268 CNS
  TGI: > 100 µM
MDA-MB-435
  TGI: > 100 µM
UO-31 renal
  TGI: > 100 µM
SN12C renal
  TGI: > 100 µM
A549 NSCLC
  TGI: > 100 µM
BT-549 breast
  TGI: > 100 µM
OVCAR-8 ovarian
  TGI: > 100 µM
SNB-19 CNS
  TGI: > 100 µM
